According to patent US20100003217A1, “Compounds and Pharmaceutical Compositions for the Treatment of Viral Infections” (priority 2008, published 2010):

Legend:
[1] = tested on: wild-type HCV replicon (GS4.1 cells); test: microbe, parasite or virus in culture
Procedure: (§1) 1. […] Huh-7 cells were seeded into column 1 of each plate at a similar density.
(§2) 2. […] Eight additional 3-fold serial dilutions of each compound were prepared from the 2× stock in assay medium. Final drug concentrations ranged from 100 to 0.015 μM.
(§3) 3. […] This setup was run in duplicate in each 96-well plate.
(§4) 4. Cells were incubated with inhibitors for three days at 37° C./5% CO2.
(§5) 1. After three days of drug treatment, media was removed from the plates via gentle tapping and the cells were fixed to the plates with 100 μL/well of 1:1 acetone:methanol.
(§6) 2. After one minute of incubation at room temperature, plates were washed three times with 100 μL/well of ELISA wash solution and then blocked with 150 μL/well of 10% FBS-TNE.
(§7) 3. After a one hour incubation at room temperature, plates were washed three times with 100 μL/well of ELISA wash solution, and then 100 μL/well of mouse anti-hepatitis C […] mAb (1 mg/mL stock diluted 1:1,500 in 10% FBS-TNE) was added.
(§8) 4. Following 2 hours of incubation at 37° C., plates were washed three times with 100 μL/well of ELISA wash solution, and then 100 μL/well of HRP-goat anti-mouse antibody (diluted 1:4,000 in 10% FBS-TNE) was added.
(§9) 4. After a one hour incubation period at 37° C., each plate was washed three times with 100 μL/well of ELISA wash solution. Color development was then initiated with 100 μL/well of OPD solution.
(§10) 5. After a 30 minute incubation period in the dark at room temperature, reactions were stopped by adding 100 μL of 2NH2SO4 to each well.
(§11) 6. The absorbance was measured at 490 nm on a Victor^3 V 1420 multilabel counter (Perkin Elmer). The percent inhibition of HCV replicon replication was calculated for each drug using an average of the duplicate wells.

[2] = tested on: S282T HCV replicon (184R-D2 cells); test: microbe, parasite or virus in culture
Procedure: as §1, §2, §3, §4, §5, §6, §7, §8, §9, §10, §11

CYP2A6 = CYP2A6 (Homo sapiens, UniProt P11509); test: Incubation with human recombinant CYP450 supersomes, 2A6; assay type: in vitro ADME; settings: CYP450 2A6 supersomes, 60 min, 10 μM, average of two experiments
Procedure: (§12) Supersomes—Incubations were conducted in a final volume of 0.1 mL reaction buffer (50-100 mM potassium phosphate, pH 7.4 or 100 mM Tris-HCL, pH 7.4) according to protocol provided with each CYP450 supersome. Each reaction contained […] of CYP450 supersome, 1.3 mM NADP^+, 3.3 mM glucose-6-phosphate, 0.4 U/mL glucose-6-phosphate dehydrogenase, 3.3 mM MgCl2 and 10 μM Compound 1. Following incubation for 60 min at 37° C., 100 μL of stop solution (acetonitrile:methanol; 1:1) was added and samples centrifuged for 10 min at 10,000×g. The supernatant was then dried and reconstituted in 10 mM potassium phosphate, pH 5, further transferred to an HPLC glass vial and analyzed by HPLC-UV (described above).

CYP1A2 = CYP1A2 (Homo sapiens, UniProt P05177); test: Incubation with human recombinant CYP450 supersomes, 1A2; assay type: in vitro ADME; settings: CYP450 1A2 supersomes, 60 min, 10 μM, average of two experiments
Procedure: as §12

CYP3A4 [3] = test: Effect of CYP3A4 inhibitors (ketoconazole, ritonavir) on metabolic stability in monkey liver microsomes; assay type: in vitro ADME; settings: monkey microsomes 0.5 mg/mL, 30 min, 10 μM, NADPH
Procedure: Incubations were conducted in a final volume of 0.1 mL per incubation time point. […] Final solvent (DMSO or methanol) concentration was maintained at 0.2%. Reactions were initiated by the addition of an NADPH regenerating system (1.3 mM NADP^+, 3.3 mM glucose-6-phosphate, 0.4 U/ml glucose-6-phosphate dehydrogenase, and 3.3 mM MgCl2, final concentrations). Incubations with no inhibitor served as control. Reactions were terminated at 30 min (monkey) or 60 min (rat and human) by the addition of 0.2 mL of stop solution (acetonitrile). The samples were vortex-mixed for 30 sec and then centrifuged at 10,000×g for 10 min. The supernatant was dried using a Labconco CentriVap concentrator and the dry residue reconstituted in water, transferred to an HPLC glass vial and analyzed by HPLC-UV method 1 (described above).
Because Compound 1 is rapidly metabolized in monkey liver microsomes, incubation conditions were adjusted by reducing protein content to 0.5 mg/mL and incubation time to 30 min. Incubation conditions for rat and human were unchanged; protein was 1 mg/mL and incubation time was 60 min.

CYP3A4 [4] = molecular target: CYP3A4 (Homo sapiens, UniProt P08684); test: Incubation with human recombinant CYP450 supersomes, 3A4; assay type: in vitro ADME; settings: CYP450 3A4 supersomes, 60 min, 10 μM, average of two experiments
Procedure: as §12

[5] = In vitro intracellular half-life of 2′-C-methyl guanosine-5′-triphosphate (Compound 7) in human primary hepatocytes; assay type: in vitro ADME; settings: human, primary hepatocytes (cellular extracts)
Procedure: (§13) Primary hepatocytes were incubated with 10 μM [^14C]-Compound 1 ([…]) or [^14C]-2′-C-methyl guanosine (127 DPM/μmol) for 24 hours at which time the incubation medium was removed and the cell monolayer carefully washed two times with warm (37° C.) PBS and placed back in culture with drug-free medium. At selected times up to 24 hours, the medium was removed and the cell monolayers carefully washed two times with ice-cold PBS. Following the last wash, all PBS was carefully removed and the cell monolayers processed and extracted as previously described. […]

[6] = tested on: human primary hepatocytes; test: as above; assay type: in vitro ADME; settings: for Decay of Compound 7: level in cellular extracts: human hepatocytes Hu775; for Compound 7 levels after 24 hours without drug / reduction of Compound 7 levels after 24 hours without drug / Compound 7 levels at time zero: human hepatocytes
Procedure: as §13

[7] = [^14C]-2′-C-methyl guanosine removed

Sequence of CYP1A2 (P05177 whole entry): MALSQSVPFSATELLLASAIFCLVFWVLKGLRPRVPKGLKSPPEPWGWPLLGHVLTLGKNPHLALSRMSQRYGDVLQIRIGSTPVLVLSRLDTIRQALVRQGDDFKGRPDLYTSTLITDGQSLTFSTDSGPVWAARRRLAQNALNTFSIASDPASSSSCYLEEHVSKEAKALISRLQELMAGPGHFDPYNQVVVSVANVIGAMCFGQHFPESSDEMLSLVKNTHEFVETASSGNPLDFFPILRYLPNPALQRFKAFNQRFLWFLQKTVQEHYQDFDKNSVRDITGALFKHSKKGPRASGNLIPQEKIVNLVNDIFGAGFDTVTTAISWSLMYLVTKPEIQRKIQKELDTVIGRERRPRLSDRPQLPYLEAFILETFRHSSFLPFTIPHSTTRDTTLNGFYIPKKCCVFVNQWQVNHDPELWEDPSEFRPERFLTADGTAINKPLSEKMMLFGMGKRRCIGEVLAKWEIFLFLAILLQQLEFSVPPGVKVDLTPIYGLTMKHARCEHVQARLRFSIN
Sequence of CYP3A4 (Homo sapiens, UniProt P08684) (P08684 whole entry): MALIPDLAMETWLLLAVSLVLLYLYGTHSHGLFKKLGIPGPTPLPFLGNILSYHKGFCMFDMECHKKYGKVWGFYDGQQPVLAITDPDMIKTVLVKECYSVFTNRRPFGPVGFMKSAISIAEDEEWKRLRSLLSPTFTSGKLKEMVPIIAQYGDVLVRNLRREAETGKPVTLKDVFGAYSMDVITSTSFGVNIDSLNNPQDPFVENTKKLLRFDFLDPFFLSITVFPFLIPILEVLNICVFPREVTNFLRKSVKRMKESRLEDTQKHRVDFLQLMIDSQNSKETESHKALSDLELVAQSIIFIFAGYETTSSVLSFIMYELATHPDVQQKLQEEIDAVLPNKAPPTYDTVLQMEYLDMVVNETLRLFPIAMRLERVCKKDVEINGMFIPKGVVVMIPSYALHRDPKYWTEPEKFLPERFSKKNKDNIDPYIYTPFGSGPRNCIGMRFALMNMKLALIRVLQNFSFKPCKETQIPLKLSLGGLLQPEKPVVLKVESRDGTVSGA
Sequence of CYP2A6 (P11509 whole entry): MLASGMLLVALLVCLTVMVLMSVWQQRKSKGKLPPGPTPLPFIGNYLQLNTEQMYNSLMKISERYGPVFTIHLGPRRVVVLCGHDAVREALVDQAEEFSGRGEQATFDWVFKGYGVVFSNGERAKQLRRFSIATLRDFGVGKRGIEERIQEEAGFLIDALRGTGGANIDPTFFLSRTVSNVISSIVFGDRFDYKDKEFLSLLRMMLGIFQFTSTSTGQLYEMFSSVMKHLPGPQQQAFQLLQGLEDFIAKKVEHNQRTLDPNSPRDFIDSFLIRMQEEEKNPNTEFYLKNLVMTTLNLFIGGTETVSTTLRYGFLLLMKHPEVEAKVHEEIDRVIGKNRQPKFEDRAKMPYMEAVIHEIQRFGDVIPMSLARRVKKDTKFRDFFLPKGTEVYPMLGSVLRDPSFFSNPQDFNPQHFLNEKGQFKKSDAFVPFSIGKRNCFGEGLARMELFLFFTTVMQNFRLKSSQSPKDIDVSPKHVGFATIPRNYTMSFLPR

CC(C)(CO)C(=O)SCCOP(=O)(NCc1ccccc1)OC[C@H]1O[C@@H](n2cnc3c(=O)[nH]c(N)nc32)[C@](C)(O)[C@@H]1O (mixture of isomers) [Compound 1, 3-hydroxy-2,2-dimethyl-thiopropionic acid S-(2-{[(2R,3R,4R,5R)-5-(2-amino-6-oxo-1,6-dihydro-purin-9-yl)-3,4-dihydroxy-4-methyl-tetrahydro-furan-2-ylmethoxy]-benzylamino-phosphoryloxy}-ethyl) ester]
Fold shift from wild-type ([1]; GS4.1 (wild-type), EC50 reference): 1 fold
EC50 ([1]; Hepatitis C virus): 0.3 µM
Fold shift from wild-type ([2]; 184R-D2 (S282T), EC50 in resistant line divided by EC50 in wild-type cells): 130 fold
EC50 ([2]; Hepatitis C virus): 39 ± 10 µM
% Residual Compound 1 (CYP2A6): 105%
% Residual Compound 1 (CYP1A2): 104%
% Residual Compound 1 (CYP3A4 [3]; Ketoconazole 0.1 μM): 68%
% Residual Compound 1 (CYP3A4 [3]; Ketoconazole 1 μM): 125%
% Residual Compound 1 (CYP3A4 [3]; Ritonavir 0.1 μM): 41%
% Residual Compound 1 (CYP3A4 [3]; Ritonavir 1 μM): 122%
% Residual Compound 1 (CYP3A4 [3]; inhibitor 0 μM): 25%
% Residual Compound 1 (CYP3A4 [4]): 62%

C[C@@]1(O)[C@H](O)[C@@H](COP(=O)(O)OP(=O)(O)OP(=O)(O)O)O[C@H]1n1cnc2c(=O)[nH]c(N)nc21 [Compound 7, [(2R)-2-methyl-β-D-ribofuranosyl]guanine 5′-triphosphate]
half-life at 10 μM ([5]; in vitro half-life for Compound 7, human hepatocytes, after 2′-C-methyl guanosine): 10.8 h
half-life at 10 μM ([5]; in vitro half-life for Compound 7, human hepatocytes, following [^14C]-Compound 1): 17.4 h
half-life at 10 μM ([5]; in vitro intracellular t1/2 of Compound 7, human hepatocytes Hu775, after 24 h incubation with 10 μM [^14C]-2′-C-methyl guanosine, linear regression): 10.8 h
half-life at 10 μM ([5]; in vitro intracellular t1/2 of Compound 7, human hepatocytes Hu775, after 24 h incubation with 10 μM [^14C]-Compound 1, linear regression): 17.4 h
Decay of Compound 7: level in cellular extracts ([6]; after 24 h incubation with 10 μM [^14C]-2′-C-methyl guanosine, decay time 0 h): 266 pmol/million cells
Decay of Compound 7: level in cellular extracts ([6]; after 24 h incubation with 10 μM [^14C]-2′-C-methyl guanosine, decay time 1 h): 259 pmol/million cells
Decay of Compound 7: level in cellular extracts ([6]; after 24 h incubation with 10 μM [^14C]-2′-C-methyl guanosine, decay time 4 h): 217 pmol/million cells
Decay of Compound 7: level in cellular extracts ([6]; after 24 h incubation with 10 μM [^14C]-2′-C-methyl guanosine, decay time 8 h): 190 pmol/million cells
Decay of Compound 7: level in cellular extracts ([6]; after 24 h incubation with 10 μM [^14C]-2′-C-methyl guanosine, decay time 24 h): 58.0 pmol/million cells
Decay of Compound 7: level in cellular extracts ([6]; after 24 h incubation with 10 μM [^14C]-Compound 1, decay time 0 h): 692 pmol/million cells
Decay of Compound 7: level in cellular extracts ([6]; after 24 h incubation with 10 μM [^14C]-Compound 1, decay time 1 h): 702 pmol/million cells
Decay of Compound 7: level in cellular extracts ([6]; after 24 h incubation with 10 μM [^14C]-Compound 1, decay time 4 h): 597 pmol/million cells
Decay of Compound 7: level in cellular extracts ([6]; after 24 h incubation with 10 μM [^14C]-Compound 1, decay time 8 h): 497 pmol/million cells
Decay of Compound 7: level in cellular extracts ([6]; after 24 h incubation with 10 μM [^14C]-Compound 1, decay time 24 h): 273 pmol/million cells
Compound 7 levels after 24 hours without drug [6, 7]: 58 pmol/million cells
reduction of Compound 7 levels after 24 hours without drug [6, 7]: 78%
Compound 7 levels after 24 hours without drug ([6]; [^14C]-Compound 1 removed): 273 pmol/million cells
reduction of Compound 7 levels after 24 hours without drug ([6]; [^14C]-Compound 1 removed): 61%
Compound 7 levels at time zero ([6]; after 24 h with 10 μM [^14C]-Compound 1): 692 pmol/million cells
Compound 7 levels at time zero ([6]; after 24 h with [^14C]-2′-C-methyl guanosine): 266 pmol/million cells
